Data from patent US8557816B2, “Aurora kinase modulators and method of use” (Amgen Inc., priority 2007, dated 2013).
Like-named read-outs stand apart in the source and are kept apart here.

What was measured:
[1] = molecular target: T1, AuroraB (Homo sapiens, UniProt Q96GD4); assay: AuroraB Homogeneous Time Resolved Fluorescent (HTRF) kinase assay; format: biochemical
T1 construct: 20 μL of AuroraB FL H is for a final volume of 41 μL; His
Method in brief: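 Full-length His-tagged kinase phosphorylates biotinylated Histone H3 (0.1 μM final) with ATP in pH 7.5 HEPES containing MgCl, MnCl, DTT and BSA for about 90 min. EDTA-containing detection mix with SA-APC and Eu-anti-phosphoHistone H3 then equilibrated about 60 min; HTRF read with 320 nm excitation, emissions 615/655 nm.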

[2] = molecular target: T2, AuroraA-TPX2 (Homo sapiens, UniProt O14965); assay: AuroraA-TPX2 Homogeneous Time Resolved Fluorescent (HTRF) kinase assay; format: biochemical
T2 construct: 20 μL of AuroraA-TPX2 KD GST for a final volume of about 41 μL; GST
T2 sequence (O14965 133-383 limits assumed): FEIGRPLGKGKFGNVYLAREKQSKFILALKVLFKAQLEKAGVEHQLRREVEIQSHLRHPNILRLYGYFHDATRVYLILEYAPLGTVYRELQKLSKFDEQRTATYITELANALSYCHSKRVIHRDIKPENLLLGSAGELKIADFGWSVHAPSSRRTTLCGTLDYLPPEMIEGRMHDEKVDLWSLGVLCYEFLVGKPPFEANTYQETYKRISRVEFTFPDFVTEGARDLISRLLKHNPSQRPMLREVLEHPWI
T2 sequence (Q9ULW0 1-43 partner limits assumed): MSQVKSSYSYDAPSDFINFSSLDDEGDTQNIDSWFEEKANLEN
Method in brief: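 HTRF read-out (Eu 615 nm to APC 655 nm) of phosphorylated biotin-PLK, detected with 0.02 nM europium anti-phosphoPLK antibody and 0.0005 mg/mL SA-APC after overnight equilibration.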

[3] = average, read-out: AurB_IC50_IP (uM Avg)
[4] = average, read-out: AurA_IC50_IP (uM Avg)

T1 sequence (Q96GD4 whole entry): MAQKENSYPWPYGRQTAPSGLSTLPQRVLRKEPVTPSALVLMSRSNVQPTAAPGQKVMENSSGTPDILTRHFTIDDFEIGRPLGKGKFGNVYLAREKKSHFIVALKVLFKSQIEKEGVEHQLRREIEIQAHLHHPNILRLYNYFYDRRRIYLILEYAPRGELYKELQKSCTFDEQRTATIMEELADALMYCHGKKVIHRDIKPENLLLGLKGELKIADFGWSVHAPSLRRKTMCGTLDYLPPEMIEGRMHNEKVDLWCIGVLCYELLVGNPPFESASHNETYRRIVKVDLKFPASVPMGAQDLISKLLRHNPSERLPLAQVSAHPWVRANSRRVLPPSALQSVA

Row | SMILES | IC50 [1, 3] | IC50 [2, 4] | IC50 ([1]; given as class symbol, read-out: AurB_IC50_IP (class symbol)) | IC50 ([2]; given as class symbol, read-out: AurA_IC50_IP (class symbol))
1 | Cc1noc(-c2cc3nccc(Oc4ccc(Nc5nnc(-c6ccc(Cl)cc6)c6ccccc56)cc4)c3s2)n1 [compound 286, 4-(4-chlorophenyl)-N-(4-((2-(3-methyl-1,2,4-oxadiazol-5-yl)thieno[3,2-b]pyridin-7-yl)oxy)phenyl)-1-phthalazinamine] | 0.022 µM | 0.087 µM | – | –
2 | C#Cc1ccc(-c2nnc(Nc3ccc(Oc4ccnc5cc(OC)cnc45)cc3)c3ccccc23)cc1 [compound 287, 4-(4-ethynylphenyl)-N-(4-((7-(methyloxy)-1,5-naphthyridin-4-yl)oxy)phenyl)-1-phthalazinamine] | 0.013 µM | 0.061 µM | – | –
3 | Cc1noc(-c2cc3nccc(Oc4ccc(Nc5nnc(-c6ccccc6)c6ccccc56)cc4)c3s2)n1 [compound 288, N-(4-((2-(3-methyl-1,2,4-oxadiazol-5-yl)thieno[3,2-b]pyridin-7-yl)oxy)phenyl)-4-phenyl-1-phthalazinamine] | 0.039 µM | 0.302 µM | – | –
4 | c1ccc(-c2nnc(Nc3ccc(Sc4ccnc5ccccc45)cc3)c3ccccc23)cc1 [compound 294, 4-phenyl-N-(4-(4-quinolinylthio)phenyl)-1-phthalazinamine] | – | – | < 0.1 µM | < 0.1 µM
5 | COc1ccc2nccc(Sc3ccc(Nc4nnc(-c5ccc(Cl)cc5)c5ccccc45)cc3)c2c1 [compound 297, 4-(4-chlorophenyl)-N-(4-(6-methoxyquinolin-4-ylthio)phenyl)phthalazin-1-amine] | 0.031 µM | 0.036 µM | – | –
6 | COc1cnc2c(Oc3ccc(Nc4nnc(-c5cc(Cl)cs5)c5ccccc45)cc3)ccnc2c1 [compound 298, 4-(4-chloro-2-thienyl)-N-(4-((7-(methyloxy)-1,5-naphthyridin-4-yl)oxy)phenyl)-1-phthalazinamine] | 0.023 µM | 0.014 µM | – | –
7 | COc1cnc2c(Oc3ccc(Nc4nnc(-c5cccc(C)c5)c5ccccc45)cc3)ccnc2c1 [compound 299, N-(4-((7-(methyloxy)-1,5-naphthyridin-4-yl)oxy)phenyl)-4-(3-methylphenyl)-1-phthalazinamine] | 0.015 µM | 0.018 µM | – | –
8 | CCc1cc(N2CC[C@H]3CCCC[C@@H]3C2)nnc1Nc1ccc(Oc2ccnc3cc(OC)cnc23)cc1 [compound 300, 4-ethyl-N-(4-((7-(methyloxy)-1,5-naphthyridin-4-yl)oxy)phenyl)-6-((4aR,8aS)-octahydro-2(1H)-isoquinolinyl)-3-pyridazinamine] | 0.067 µM | 0.112 µM | – | –
9 | Clc1ccc(-c2nnc(Nc3ccc(Sc4ccnc5cc(Br)cnc45)cc3)c3ccccc23)cc1 [compound 301, N-(4-((7-bromo-1,5-naphthyridin-4-yl)thio)phenyl)-4-(4-chlorophenyl)-1-phthalazinamine] | 0.063 µM | 0.035 µM | – | –
10 | COc1cnc2c(Sc3ccc(Nc4nnc(-c5ccc(Cl)cn5)c5ccccc45)cc3)ccnc2c1 [compound 304, 4-(5-chloro-2-pyridinyl)-N-(4-((7-(methyloxy)-1,5-naphthyridin-4-yl)thio)phenyl)-1-phthalazinamine] | 0.019 µM | 0.013 µM | – | –
11 | COc1cnc2c(Oc3ccc(Nc4nnc(-c5ccc6c(c5)OCO6)c5ccccc45)cc3)ccnc2c1 [compound 306, 4-(1,3-benzodioxol-5-yl)-N-(4-((7-(methyloxy)-1,5-naphthyridin-4-yl)oxy)phenyl)-1-phthalazinamine] | 0.03 µM | 0.011 µM | – | –
12 | c1ccc(-c2nnc(Nc3ccc(Sc4ccnc5ccccc45)cc3)c3ccccc23)cc1 [compound 310, 4-phenyl-N-(4-(4-quinolinylthio)phenyl)-1-phthalazinamine] | 0.017 µM | 0.209 µM | – | –
13 | Cc1csc(-c2nnc(Nc3ccc(Sc4ccnc5cc(C(=O)N6CCOCC6)sc45)cc3)c3ccccc23)c1 [compound 312, (7-(4-(4-(4-methylthiophen-2-yl)phthalazin-1-ylamino)phenylthio)thieno[3,2-b]pyridin-2-yl)(morpholino)methanone] | 0.03 µM | 0.022 µM | – | –
14 | O=C(c1cc2nccc(Sc3ccc(Nc4nnc(-c5ccccc5)c5ccccc45)cc3)c2s1)N1CCOCC1 [compound 313, morpholino(7-(4-(4-phenylphthalazin-1-ylamino)phenylthio)thieno[3,2-b]pyridin-2-yl)methanone] | 0.056 µM | 0.091 µM | – | –

The next lines start with the values.

Row | IC50 [1, 3] | IC50 [2, 4] | IC50 ([1]; given as class symbol, read-out: AurB_IC50_IP (class symbol)) | IC50 ([2]; given as class symbol, read-out: AurA_IC50_IP (class symbol)) | SMILES
15 | 0.007 µM | 0.019 µM | – | – | COc1cnc2c(Oc3ccc(Nc4nnc(-c5ccc(Cl)cc5)c5ccccc45)cc3F)ccnc2c1 [compound 284, 4-(4-chlorophenyl)-N-(3-fluoro-4-((7-(methyloxy)-1,5-naphthyridin-4-yl)oxy)phenyl)-1-phthalazinamine]
16 | 0.002 µM | 0.029 µM | – | – | c1ccc(-c2nnc(Nc3ccc(Sc4ccnc5cccnc45)cc3)c3ccccc23)cc1 [compound 285, N-(4-(1,5-naphthyridin-4-ylthio)phenyl)-4-phenyl-1-phthalazinamine]
17 | 0.011 µM | 0.068 µM | – | – | Cc1csc(-c2nnc(Nc3ccc(Oc4ccnc5ccsc45)cc3)c3ccccc23)c1 [compound 289, 4-(4-methyl-2-thienyl)-N-(4-(thieno[3,2-b]pyridin-7-yloxy)phenyl)-1-phthalazinamine]
18 | 0.009 µM | 0.35 µM | – | – | Clc1ccc(-c2nnc(Nc3ccc(Oc4ncnc5[nH]ccc45)cc3)c3ccccc23)cc1 [compound 290, 4-(4-chlorophenyl)-N-(4-(7H-pyrrolo[2,3-d]pyrimidin-4-yloxy)phenyl)-1-phthalazinamine]
19 | 0.01 µM | 0.031 µM | – | – | COc1cnc2c(Oc3ccc(Nc4nnc(-c5ccc6c(c5)OC(F)(F)O6)c5ccccc45)cc3)ccnc2c1 [compound 291, 4-(2,2-difluoro-1,3-benzodioxol-5-yl)-N-(4-((7-(methyloxy)-1,5-naphthyridin-4-yl)oxy)phenyl)-1-phthalazinamine]
20 | 0.011 µM | 0.144 µM | – | – | COc1ccc2nccc(Sc3ccc(Nc4nnc(-c5ccccc5)c5ccccc45)cc3)c2c1 [compound 292, N-(4-((6-(methyloxy)-4-quinolinyl)thio)phenyl)-4-phenyl-1-phthalazinamine]
21 | 0.006 µM | 0.266 µM | – | – | FC1(F)Oc2ccc(-c3nnc(Nc4ccc(Oc5ccnc6ccsc56)cc4)c4ccccc34)cc2O1 [compound 293, 4-(2,2-difluoro-1,3-benzodioxol-5-yl)-N-(4-(thieno[3,2-b]pyridin-7-yloxy)phenyl)-1-phthalazinamine]
22 | 0.006 µM | 0.022 µM | – | – | CCc1cc(-c2ccc(C)cc2)nnc1Nc1ccc(Oc2ccnc3cc(OC)cnc23)cc1 [compound 307, 4-ethyl-N-(4-((7-(methyloxy)-1,5-naphthyridin-4-yl)oxy)phenyl)-6-(4-methylphenyl)-3-pyridazinamine]
23 | 0.004 µM | 0.029 µM | – | – | Clc1ccc(-c2nnc(Nc3ccc(Sc4ccnc5cccnc45)cc3)c3ccccc23)cc1 [compound 308, 4-(4-chlorophenyl)-N-(4-(1,5-naphthyridin-4-ylthio)phenyl)-1-phthalazinamine]
24 | 0.003 µM | 0.054 µM | – | – | c1ccc(-c2nnc(Nc3ccc(Sc4ccnc5cccnc45)cc3)c3ccccc23)cc1 [compound 309, N-(4-(1,5-naphthyridin-4-ylthio)phenyl)-4-phenyl-1-phthalazinamine]
